From patent US20080318954A1, “Compounds” (Cyclacel Limited, priority 2004, published 2008)

How the values were obtained:
CDK2/cyclin A = target: T1, CDK2/cyclin A (Homo sapiens, UniProt P24941); experiment: CDK/cyclin kinase assay, CDK2/cyclin A; assay type: biochemical; conditions: for inhibition at 1 µM: primary screening at 1 μM; for IC50: read-out: Kinase inhibition IC50 CDK2/A
T1 construct: His6 (N); made in house; host or cells: Sf9 insect cells (baculovirus)
Description: (§1) CDK4/cyclin D1, CDK1/cyclin B, CDK2/cyclin E, CDK2/cyclin A, CDK9/cyclin T1 and CDK7/cyclin H, all with a His6 tag on the N-terminus, were expressed in Sf9 insect cells using an appropriate baculovirus construct. Sf9 culture (1.6×10^6 cells/mL) was infected (MOI of 3) for two days. The cells were harvested by low speed centrifugation and the protein was purified from the insect cell pellet by metal affinity chromatography. In short: the insect cell pellet was lysed in Buffer A (10 mM Tris-HCl pH 8.0, 150 mM NaCl, 0.02% NP-40, 5 mM β-mercaptoethanol, 20 mM NaF, 1 mM Na3VO4, and Sigma Protease Inhibitor Cocktail) by sonication. The soluble fraction was cleared by centrifugation and loaded onto Ni-NTA-Agarose (Qiagen). Non-bound protein was washed off with 300 mM NaCl, 5-15 mM imidazole in buffer A and the bound protein was eluted with buffer A supplemented with 250 mM imidazole. The purified proteins were extensively dialyzed against storage buffer (20 mM HEPES pH 7.4, 50 mM NaCl, 2 mM DTT, 1 mM EDTA, 1 mM EGTA, 0.02% NP-40, 10% v/v glycerol) and stored at −70° C.
(§2) Compounds were investigated for their CDK2/cyclin E, CDK2/cyclin A, CDK1/cyclin B, and CDK4/cyclin D1 inhibitory activity. His6-tagged recombinant human cyclin-dependent kinases CDK1/cyclin B1, CDK2/cyclin E, CDK2/cyclin A, and CDK4 were expressed in sf9 insect cells using a baculovirus expression system. Recombinant cyclin D1 was expressed in E. coli. Proteins were purified by metal chelate affinity chromatography to greater than 90% homogeneity. Kinase assays were performed in 96-well plates using recombinant CDK/cyclins. Assays were performed in assay buffer (25 mM β-glycerophosphate, 20 mM MOPS, 5 mM EGTA, 1 mM DTT, 1 mM […], pH 7.4), into which were added 2-4 μg of active enzyme with appropriate substrates (purified histone H1 for CDK1 and CDK2, recombinant GST-retinoblastoma protein (residues 773-928) for CDK4). The reaction was initiated by addition of Mg/ATP mix (15 mM MgCl2+100 μM ATP with 30-50 kBq per well of [γ-^32P]-ATP) and mixtures incubated for 10-45 min, as required, at 30° C. Reactions were stopped on ice, followed by filtration through p81 or GF/C filterplates (for CDK4) (Whatman Polyfiltronics, Kent, UK). After washing 3 times with 75 mM aq orthophosphoric acid, plates were dried, scintillant added and incorporated radioactivity measured in a scintillation counter (TopCount, Packard Instruments, Pangbourne, Berks, UK). Compounds for kinase assays were made up as 10 mM stocks in DMSO and diluted into 10% DMSO in assay buffer. Data was analysed using curve-fitting software (GraphPad Prism version 3.00 for Windows, GraphPad Software, San Diego Calif. USA) to determine IC50 values (concentration of test compound which inhibits kinase activity by 50%).

CDK1/cyclin B1 = target: T2, CDK1/cyclin B1 (Homo sapiens, UniProt P06493); experiment: CDK/cyclin kinase assay, CDK1/cyclin B1; assay type: biochemical; conditions: for inhibition at 1 µM: primary screening at 1 μM; for IC50: read-out: Kinase inhibition IC50 CDK1/B1
T2 construct: His6 (N); made in house; host or cells: Sf9 insect cells (baculovirus)
Description: as §1, §2

GSK-3β = target: T3, GSK-3β (Oryctolagus cuniculus, UniProt G1T8E2); experiment: GSK-3β kinase assay; assay type: biochemical, rabbit; conditions: read-out: Kinase inhibition IC50 GSK3β
T3 construct: isolated from a strain of E. coli that carries a clone expressing GSK-3β derived from a rabbit skeletal muscle cDNA library [34]
Description: GSK-3 was obtained from New England Biolabs (UK) Ltd., Hitchin, Herts. The recombinant enzyme was isolated from a strain of E. coli that carries a clone expressing GSK-3β derived from a rabbit skeletal muscle cDNA library. Inhibition of GSK-3 function was assessed by measurement of phosphorylation of CREB phosphopeptide KRREILSRRPpSYR in the presence of test compounds. Using a 96-well assay format, GSK3 (7.5 U) was incubated for 30 min at 30° C. in a total volume of 25 μL in 20 mM MOPS pH 7.2, 25 mM β-glycerophosphate, 5 mM EGTA, 1 mM DTT, 1 mM […], 40 μM CREB peptide, 15 mM MgCl2 and 100 μM ATP (containing 0.25 μCi [γ-^32P]-ATP) in the presence of varying concentrations of test compound. The samples were transferred to 96-well p81 filter plates (Whatman Polyfiltronics, Kent, UK), and the plates were washed 4 times with 200 μL/well of 75 mM aq orthophosphoric acid. Scintillation liquid (50 μL) was added to each well, and incorporated radioactivity for each sample was determined using a scintillation counter (TopCount, Packard Instruments, Pangbourne, Berks, UK).

CDK4/cyclin D1 = target: T4, CDK4/cyclin D1 (Homo sapiens, UniProt P11802); experiment: CDK/cyclin kinase assay, CDK4/cyclin D1; assay type: biochemical; conditions: for inhibition at 1 µM: primary screening at 1 μM; for IC50: read-out: Kinase inhibition IC50 CDK4/D1
T4 construct: His6 (N); made in house; host or cells: CDK4: Sf9 insect cells (baculovirus); Cyclin D1: E. coli, Sf9
Description: as §1, §2

CDK2/cyclin E = target: T5, CDK2/cyclin E (Homo sapiens, UniProt P24941); experiment: CDK/cyclin kinase assay, CDK2/cyclin E; assay type: biochemical; conditions: for inhibition at 1 µM: primary screening at 1 μM; for IC50: read-out: Kinase inhibition IC50 CDK2/E
T5 construct: His6 (N); made in house; host or cells: Sf9 insect cells (baculovirus)
Description: as §1, §2

[1] = system: glycogen synthase activity in HEK293 cells; experiment: Glycogen synthase (GS) assay in HEK293 cells; assay type: cell-based, human; conditions: Homo sapiens; In HEK293 cells at [compound] = 5 μM (Table 2)
Description: Cells on 10 cm dishes (Human Embryonic Kidney (HEK) 293 cells, L6 rat myocytes, or 3T3 mouse adipocytes) were treated with different concentrations of GSK3-inhibitors or DMSO vehicle for 90 min. Incubation medium was removed and cells were washed with ice-cold phosphate-buffered saline (PBS) prior to lysis on ice in 50 mM HEPES, pH 7.5, 10 mM EDTA, 100 mM NaF, 5 mM DTT, protease inhibitor cocktail (Sigma). After a freeze/thaw cycle the samples are sonicated for 10 sec and centrifuged at 15,000 g for 10 min at 4° C. Lysate supernatants were snap-frozen on liquid nitrogen and stored at −80° C. Lysates were assayed for glycogen synthase activity in buffer (50 mM Tris-HCl, pH 7.8, 20 mM EDTA, 25 mM NaF, 5 mM DTT, 1% glycogen, 0.3 mM UDP-glucose and 0.06 μCi of [^14C]-UDP-glucose in the presence of 0.1 or 10 mM glucose-6-phosphate. The reaction was carried out for 30 min at 30° C. 70 μL of the reaction mixture (total volume 90 μL) were transferred to a GFC 96-well filter plate (bottom sealed with foil), containing 140 μL 96% ethanol. The GFC plate was incubated for 1 h on ice and than washed with 66% ethanol. To each well 100 μL scintillant liquid was added and the radioactivity of the samples was measured using a scintillation counter (Topcount, HP). Data are expressed as -fold increase in glycogen synthase activity ratios over those of control samples.

T3 sequence (G1T8E2 1-432): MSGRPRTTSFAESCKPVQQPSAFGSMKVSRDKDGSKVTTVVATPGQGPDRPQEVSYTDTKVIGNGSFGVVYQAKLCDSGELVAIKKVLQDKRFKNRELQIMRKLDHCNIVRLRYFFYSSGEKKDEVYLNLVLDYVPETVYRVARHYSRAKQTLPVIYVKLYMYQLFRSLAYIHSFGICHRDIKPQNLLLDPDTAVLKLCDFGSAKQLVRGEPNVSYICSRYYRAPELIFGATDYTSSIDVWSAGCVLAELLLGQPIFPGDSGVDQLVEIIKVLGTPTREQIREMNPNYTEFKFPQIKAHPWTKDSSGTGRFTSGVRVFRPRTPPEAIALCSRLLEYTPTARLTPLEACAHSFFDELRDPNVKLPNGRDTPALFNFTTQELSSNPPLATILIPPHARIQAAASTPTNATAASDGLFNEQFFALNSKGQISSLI
T2 sequence (P06493 whole entry): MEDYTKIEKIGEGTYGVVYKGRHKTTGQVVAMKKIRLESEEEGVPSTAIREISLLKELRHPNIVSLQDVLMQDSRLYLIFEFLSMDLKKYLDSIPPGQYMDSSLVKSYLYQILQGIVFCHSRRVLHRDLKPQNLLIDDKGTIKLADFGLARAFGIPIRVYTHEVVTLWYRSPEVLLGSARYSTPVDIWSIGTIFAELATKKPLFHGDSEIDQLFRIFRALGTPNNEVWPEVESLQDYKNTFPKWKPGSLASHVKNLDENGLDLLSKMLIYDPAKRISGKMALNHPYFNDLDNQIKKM
T2 sequence (P14635 whole entry partner): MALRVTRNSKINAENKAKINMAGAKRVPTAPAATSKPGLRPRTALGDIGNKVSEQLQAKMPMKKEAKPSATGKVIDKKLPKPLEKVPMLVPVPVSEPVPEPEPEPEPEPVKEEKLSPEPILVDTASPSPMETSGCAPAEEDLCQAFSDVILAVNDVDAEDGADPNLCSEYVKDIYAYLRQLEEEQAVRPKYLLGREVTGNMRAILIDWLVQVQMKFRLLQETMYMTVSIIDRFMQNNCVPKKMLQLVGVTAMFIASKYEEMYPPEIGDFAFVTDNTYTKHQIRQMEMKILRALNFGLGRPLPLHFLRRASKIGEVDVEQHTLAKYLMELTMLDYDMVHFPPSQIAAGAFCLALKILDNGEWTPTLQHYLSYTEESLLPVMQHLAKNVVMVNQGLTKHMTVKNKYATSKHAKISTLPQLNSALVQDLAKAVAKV
T4 sequence (P11802 whole entry): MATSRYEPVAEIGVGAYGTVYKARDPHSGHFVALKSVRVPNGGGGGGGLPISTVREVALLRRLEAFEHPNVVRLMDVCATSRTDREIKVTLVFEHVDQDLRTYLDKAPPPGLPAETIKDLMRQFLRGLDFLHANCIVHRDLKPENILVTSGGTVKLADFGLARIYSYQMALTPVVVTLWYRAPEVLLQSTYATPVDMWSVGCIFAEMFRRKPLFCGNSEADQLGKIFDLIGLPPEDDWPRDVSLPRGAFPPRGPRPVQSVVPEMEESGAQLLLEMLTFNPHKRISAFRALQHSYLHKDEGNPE
T4 sequence (P24385 whole entry partner): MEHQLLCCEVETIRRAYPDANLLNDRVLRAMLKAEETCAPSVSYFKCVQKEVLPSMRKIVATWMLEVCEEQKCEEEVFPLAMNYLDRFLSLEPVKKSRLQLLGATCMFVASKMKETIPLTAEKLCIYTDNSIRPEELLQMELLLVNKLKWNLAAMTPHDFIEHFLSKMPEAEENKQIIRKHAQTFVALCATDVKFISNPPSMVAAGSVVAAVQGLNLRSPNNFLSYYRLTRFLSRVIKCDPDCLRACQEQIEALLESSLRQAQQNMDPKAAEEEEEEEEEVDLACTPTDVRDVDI

Row | Compound | inhibition at 1 µM (CDK2/cyclin A) [%] | inhibition at 1 µM (CDK1/cyclin B1) [%] | IC50 (GSK-3β) [µM] | inhibition at 1 µM (CDK4/cyclin D1) [%] | inhibition at 1 µM (CDK2/cyclin E) [%] | IC50 (CDK2/cyclin A) [µM] | IC50 (CDK1/cyclin B1) [µM] | fold induction at 5 µM [1] | IC50 (CDK4/cyclin D1) [µM] | IC50 (CDK2/cyclin E) [µM]
1 | Cc1nc(-c2ccnc(Nc3cccc(C(F)(F)F)c3)n2)sc1C [Compound X, [4-(4,5-Dimethyl-thiazol-2-yl)-pyrimidin-2-yl]-(3-trifluoromethyl-phenyl)-amine] | < 50 | < 50 | 12.2 | < 50 | < 50 |  |  |  |  | 
2 | Cc1nc(-c2ccnc(Nc3ccc(Cl)c(C(F)(F)F)c3)n2)sc1C [Compound XI, (4-Chloro-3-trifluoromethyl-phenyl)-[4-(4,5-dimethyl-thiazol-2-yl)-pyrimidin-2-yl]-amine] | < 50 | < 50 | 15.6 | < 50 | < 50 |  |  |  |  | 
3 | Cc1nc(-c2ccnc(Nc3cccc(O)c3)n2)sc1C [IX, 3-[4-(4,5-Dimethyl-thiazol-2-yl)-pyrimidin-2-ylamino]-phenol] | < 50 | < 50 | 1.53 | < 50 | < 50 |  |  |  |  | 
4 | CCOC(=O)c1sc(-c2ccnc(Nc3ccc(Cl)cc3)n2)nc1O [VII, 2-[2-(4-Chloro-phenylamino)-pyrimidin-4-yl]-4-hydroxy-thiazole-5-carboxylic acid ethyl ester] |  |  | 0.135 |  |  | > 10 | > 10 | 2.3 | > 10 | > 1
5 | Cc1nc(-c2ccnc(Nc3cccc(N)c3)n2)sc1C [VIII, N-[4-(4,5-Dimethyl-thiazol-2-yl)-pyrimidin-2-yl]-benzene-1,3-diamine] | < 50 | < 50 | 3.47 | < 50 | < 50 |  |  |  |  | 
6 | COc1ccc(Nc2nccc(-c3nccs3)n2)cn1 [XIII, (6-Methoxy-pyridin-3-yl)-(4-thiazol-2-yl-pyrimidin-2-yl)-amine] |  |  | 0.91 |  |  | > 100 | > 100 | 1.5 | > 100 | > 50
7 | COc1ccc(Nc2nccc(-c3nc(C)c(C)s3)n2)cn1 [XVI, [4-(4,5-Dimethyl-thiazol-2-yl)-pyrimidin-2-yl]-(6-methoxy-pyridin-3-yl)-amine] |  |  | 5.45 |  |  | > 10 | > 10 |  | > 10 | > 1
8 | Cc1nc(-c2ccnc(Nc3ccc(Cl)nc3)n2)sc1C [XVII, (6-Chloro-pyridin-3-yl)-[4-(4,5-dimethyl-thiazol-2-yl)-pyrimidin-2-yl]-amine] |  |  | 2.91 |  |  | > 10 | > 10 |  | > 10 | > 10
9 | Cc1sc(-c2ccnc(Nc3ccc(Cl)cc3)c2)nc1O [XXII, 2-[2-(4-Chloro-phenylamino)-pyridin-4-yl]-5-methyl-thiazol-4-ol] | < 50 | < 50 | 0.47 | < 50 | < 50 |  |  | 1.5 ± 0.4 |  | 
10 | c1cc(-c2nccs2)nc(Nc2ccc(N3CCCC3)nc2)n1 [XXIII, (6-Pyrrolidin-1-yl-pyridin-3-yl)-(4-thiazol-2-yl-pyrimidin-2-yl)-amine] | < 50 | < 50 | 0.482 | < 50 | < 50 |  |  | 1.35 ± 0.07 |  | 
11 | CCOC(=O)c1sc(-c2ccnc(Nc3ccc(Cl)nc3)n2)nc1O [XXIV, 2-[2-(6-Chloro-pyridin-3-ylamino)-pyrimidin-4-yl]-4-hydroxy-thiazole-5-carboxylic acid ethylester] | < 50 | < 50 | 0.019 |  | < 50 |  |  | 4.3 ± 0.32 | 0.96 | 
12 | Cc1sc(-c2ccnc(Nc3ccc(Cl)nc3)n2)nc1O [XXV, 2-[2-(6-Chloro-pyridin-3-ylamino)-pyrimidin-4-yl]-5-methyl-thiazol-4-ol] | < 50 | < 50 | 0.08 |  | < 50 |  |  | 2.1 ± 0.3 |  | 
13 | OCCc1sc(-c2ccnc(Nc3ccc(Cl)nc3)n2)nc1O [XXVI, 2-[2-(6-Chloro-pyridin-3-ylamino)-pyrimidin-4-yl]-5-(2-hydroxy-ethyl)-thiazol-4-ol] | < 50 | < 50 | 0.164 |  | < 50 |  |  | 5.2 ± 3.2 | 2.08 | 
14 | Cc1cc(Nc2nccc(-c3nccs3)n2)cnc1Cl [XXVII, (6-Chloro-5-methyl-pyridin-3-yl)-(4-thiazol-2-yl-pyrimidin-2-yl)-amine] |  |  | 0.09 |  | < 50 |  |  | 1.5 ± 0.4 |  | 
